Laboratory results taken from ChEMBL document CHEMBL4138080, “Improved synthesis and comparative analysis of the tool properties of new and existing D-ring modified (S)-blebbistatin analogs” (Eur J Med Chem, 2017).
pIC50: −log10 of the molar value. Values after ≈ are worked out from the molar mass of the structure shown.

Columns and labels:
[1] = organism: Oryctolagus cuniculus; experiment: Potency index, ratio of (S)-blebbistatin (S)-1 IC50 to compound IC50 for inhibition of rabbit full length skeletal muscle myosin 2 ATPase activity by CytoPhos reagent based ATPase assay
[2] = Inhibition of rabbit full length skeletal muscle myosin 2 ATPase activity using Pre-formed rabbit skeletal muscle F-actin filaments and ATP incubated for 1 hr by CytoPhos reagent based ATPase assay; set-up: species or system Oryctolagus cuniculus
[3] = Apparent permeability from basolateral to apical side in human Caco2 cells assessed as drug recovery at 10 uM after 40 mins by HPLC-MS/MS analysis; format: ADME, cell-based; details: Caco-2, read-out: Drug recovery
[4] = Aqueous solubility at steady-state in pH 7.4 PBS at 200 uM after 24 hrs by HPLC method; format: physicochemical; details: for solubility at 24 h, 200 µM: PBS, pH 7.4
[5] = Photostability of the compound in DMSO/H20 (1:1) solvent assessed as half life for compound degradation at 100 to 600 uM under irradiation at 390 to 470 nm by HPLC analysis; format: physicochemical; details: DMSO/H2O (1:1)
[6] = Apparent permeability from apical to basolateral side in human Caco2 cells at 10 uM after 60 mins by HPLC-MS/MS analysis; format: ADME, cell-based; details: Caco-2
[7] = Apparent permeability from apical to basolateral side in human Caco2 cells assessed as drug recovery at 10 uM after 60 mins by HPLC-MS/MS analysis; format: ADME, cell-based; details: Caco-2, read-out: Drug recovery
[8] = Apparent permeability from basolateral to apical side in human Caco2 cells at 10 uM after 40 mins by HPLC-MS/MS analysis; format: ADME, cell-based; details: Caco-2
[9] = Photostability of the compound in DMSO alone solvent assessed as compound degradation at 100 to 600 uM under irradiation at 390 to 470 nm up to 90 mins by HPLC analysis; format: physicochemical; details: 1.5 h
[10] = Photostability of the compound in PBS/MeOH at 20 uM under blue light irradiation at 488 nm assessed as compound degradation after 30 mins by fluorescence spectroscopic analysis; format: physicochemical; details: buffer, 0.5 h
[11] = Photostability of the compound in DMSO/H20 (1:1) solvent assessed as compound degradation at 100 to 600 uM under irradiation at 390 to 470 nm after mins by HPLC analysis; format: physicochemical; details: DMSO/H2O (1:1); read-out: Drug degradation

Row | Structure (SMILES) | Ratio IC50 [1] | pIC50 [2] | recovery at 40 min, 10 µM [3] [%] | solubility at 24 h, 200 µM [4] [µM] | half-life at up to 600 µM [5] [min] | Papp A→B at 1 h, 10 µM [6] [×10⁻⁶ cm/s] | recovery at 1 h, 10 µM [7] [%] | Papp B→A at 40 min, 10 µM [8] [×10⁻⁶ cm/s] | other results
1 | CCC(=O)Nc1cccc(N2CC[C@@]3(O)C(=O)c4cc(C)ccc4N=C23)c1 | < 0.02 | < 4.00 | – | – | – | – | – | – | –
2 | Cc1ccc2c(c1)C(=O)[C@]1(O)CCN(c3ccc4cc[nH]c4c3)C1=N2 | 0.12 | 5.14 | – | – | – | – | – | – | –
3 | C=CCOc1ccc(N2CC[C@@]3(O)C(=O)c4cc(C)ccc4N=C23)cc1 | 2.3 | 6.42 | 65 | 2.75 (≈ 0.958 µg/mL) | 8.8 | 29.7 | 32 | 7.58 | –
4 | C=CC(=O)Oc1cccc(N2CC[C@@]3(O)C(=O)c4cc(C)ccc4N=C23)c1 | 0.04 | 4.24 | – | – | – | – | – | – | –
5 | Cc1ccc2c(c1)C(=O)[C@]1(O)CCN(c3ccccc3)C1=N2 | 1 | 5.67 to 6.06 | 66 | – | 14 | 60.5 | 66 | 19.2 | Stability [9]: Stable; solubility ([4]; buffer, pH 7.4, 24 h, 200 µM): 6.18 µM (≈ 1.81 µg/mL); Stability [10]: Stable
6 | C=CC(=O)Nc1cccc(N2CC[C@@]3(O)C(=O)c4cc(C)ccc4N=C23)c1 | < 0.02 | < 4.00 | – | – | – | – | – | – | –
7 | Cc1ccc2c(c1)C(=O)[C@]1(O)CCN(c3cccc(C(N)=O)c3)C1=N2 | < 0.02 | – | – | – | – | – | – | – | –
8 | CCC(=O)Oc1cccc(N2CC[C@@]3(O)C(=O)c4cc(C)ccc4N=C23)c1 | 0.09 | 4.63 | – | – | – | – | – | – | –
9 | Cc1ccc2c(c1)C(=O)[C@]1(O)CCN(c3cccc(O)c3)C1=N2 | 0.11 | – | 70 | 193 (≈ 59.5 µg/mL) | 11 | 28.5 | 49 | 17.2 | –
10 | Cc1ccc2c(c1)C(=O)[C@]1(O)CCN(c3ccc(OCc4ccccc4)cc3)C1=N2 | < 0.02 | < 4.40 | – | – | – | – | – | – | –
11 | Cc1ccc2c(c1)C(=O)[C@]1(O)CCN(c3cccc(C#N)c3)C1=N2 | 0.04 | – | – | – | – | – | – | – | –
12 | Cc1ccc2c(c1)C(=O)[C@]1(O)CCN(c3ccc([N+](=O)[O-])cc3)C1=N2 | 2.5 | – | 72 | 31.7 (≈ 10.7 µg/mL) | > 90 | 32.5 | 34 | 2.23 | degraded at up to 600 µM [11]: 33%
13 | Cc1ccc2c(c1)C(=O)[C@]1(O)CCN(c3ccc(N)cc3)C1=N2 | 0.19 | – | 82 | > 200 | 44 | 69.4 | 85 | 31.1 | –
14 | C=CCN(CC=C)c1cccc(N2CC[C@@]3(O)C(=O)c4cc(C)ccc4N=C23)c1 | – | < 4.97 | – | – | – | – | – | – | –
15 | Cc1ccc2c(c1)C(=O)[C@]1(O)CCN(c3ccc(O)cc3)C1=N2 | 0.16 | 5.26 | – | 82.4 (≈ 25.4 µg/mL) | 4.7 | – | – | – | –
16 | Cc1ccc2c(c1)C(=O)[C@]1(O)CCN(c3cccc(C(=O)O)c3)C1=N2 | < 0.02 | – | – | – | – | – | – | – | –
17 | Cc1ccc2c(c1)C(=O)[C@]1(O)CCN(c3ccc4c(c3)NCC4)C1=N2 | 0.11 | 5.11 | – | – | – | – | – | – | –
18 | Cc1ccc2c(c1)C(=O)[C@]1(O)CCN(c3ccc4ccccc4c3)C1=N2 | < 0.02 | < 4.40 | – | – | – | – | – | – | –
19 | Cc1ccc2c(c1)C(=O)[C@]1(O)CCN(c3cccc(N)c3)C1=N2 | 0.15 | – | 74 | 186 (≈ 57.2 µg/mL) | 13 | 62.7 | 79 | 26.2 | –
20 | C=CCOc1cccc(N2CC[C@@]3(O)C(=O)c4cc(C)ccc4N=C23)c1 | 0.23 | 5.03 | – | 2.83 (≈ 0.986 µg/mL) | 15 | – | – | – | –
